Measurements: patent publication US7989495B2, “Compositions and methods for inhibiting NF-κB mediated tumorigenicity and adhesion dependent survival of cancer cells” (University of Utah Research Foundation, priority 2002, dated 2011)

Tested on: NF-κB (p65) binding to NF-κB consensus oligonucleotides
Experiment: NF-κB binding activity assay (Trans-AM) on lysates of treated HT-29 cells
Format: cell-based
Method: The transiently suspended cells were lysed and allowed to bind to DNA oligonucleotides, containing the NF-κB consensus binding site, that were immobilized to 96-well plates. NF-κB protein bound to the oligonucleotides was detected by an antibody to the p65 subunit that only recognized p65 that is bound to DNA. The positive control was HeLa cells that were stimulated with TNFα A control was performed using excess free NF-κB oligonucleotides (Competitor). […] NF-κB binding activity was determined by the TransAM assay as in FIG. 5A. […] The data shown represent typical results of three separate experiments. […] An immunoblot for COX-2 was performed.
Activation of NF-κB was also determined using the Trans-AM™ assay (Active Motif, Carlsbad, Calif.) per the manufacturer's instructions. (Renard et al., 2001) Briefly, cell monolayers on 60 mm dishes were washed with ice-cold PBS and removed by incubating in trypsin-PBS or scraping. The cells were centrifuged for 10 minutes at 1,000 rpm at 4° C. and resuspended for 10 minutes in 100 μl of 4° C. lysis buffer (20 mM HEPES (pH 7.5), 350 mM NaCl, 20% glycerol, 1% Igepal-CA630, 1 mM MgCl2, 0.5 mM EDTA, 0.1 mM EGTA, 1 μl of 1 M dithiothreitol and 10 μl of protease inhibitor cocktail (proprietary) per ml of lysis buffer). The lysates were centrifuged for 20 minutes at 14,000 g at 4° C. Lysates containing 5 μg of total protein were added to 20 μl of lysis buffer per well in 96-well dishes containing immobilized oligonucleotides corresponding to the NF-κB consensus DNA binding site (5′-GGGACTTTCC-3′) (SEQ ID NO:2). The plate was covered with an adhesive film and incubated for 1 hour at room temperature on a rocker. The wells were then washed three times with 200 μl per well of washing buffer (100 mM phosphate buffer (pH 7.5), 500 mM NaCl, 1% Tween). 100 μl of p65subunit monoclonal antibody (the p65 antibody supplied with the kit only recognizes p65-containing NF-κB heterodimers that are bound to DNA containing the NF-κB consensus binding sequence) was diluted 1:1,000 in 1× antibody binding buffer (4 mM HEPES (pH 7.5), 120 mM KCl, 8% glycerol, 1% bovine serum albumin) and added to each well and incubated for 1 hour at room temperature. The wells were washed with 100 μl of washing buffer three times. 100 μl of horseradish peroxidase-conjugated secondary antibody diluted 1:1,000 in 1× antibody binding buffer was added to each well and incubated for 1 hour at room temperature without agitation. […] 100 μl of stop solution (0.5 M H2SO4) was added to each well after which the absorbance was determined on a plate spectrophotometer at 450 nm. Specificity of binding was determined using 200-fold excess wildtype NF-κB oligonucleotides added at the time the cell lysates were added to the wells. […]

SMILES: CC(C)(C)c1ccc(S(=O)(=O)/C=C/C#N)cc1 [BAY 11-7085, (2E)-3-[4-(tertiarybutylphenyl)sulfonyl]-2-propenenitrile]
- constitutive NF-κB activation in adherent cells (adherent HT-29, increasing concentrations, 8 hours): relatively unaffected
- inhibition of constitutive NF-κB activation in adherent cells (adherent colon cancer cells, doses up to 50 μM): could not be inhibited
- inhibition of NF-κB activation caused by readhesion (transiently suspended HT-29, increasing concentrations, 8 hours): dose-related inhibition of this NF-κB activation
- inhibition of NF-κB activation induced by readhesion (transiently suspended colon cancer cells, as little as 10 μM): almost totally inhibited
